Measurements as given in patent US11154060B2, “Microbiocidal oxadiazole derivatives” (SYNGENTA PARTICIPATIONS AG, priority 2016, dated 2021).

What was measured:
[1] = system: Glomerella lagenarium (Colletotrichum lagenarium); test: Glomerella lagenarium (Colletotrichum lagenarium) liquid culture / cucumber / preventative (anthracnose); type: cell-based; conditions: Colletotrichum orbiculare, liquid culture in PDB, 24° C., 3-4 days after application, read-out: control of Glomerella lagenarium compared to untreated control (inhibition of growth, photometric)
Description: Mycelia fragments or conidia suspensions of a fungus prepared either freshly from liquid cultures of the fungus or from cryogenic storage, are directly mixed into nutrient broth. DMSO solutions of the test compound (max. 10 mg/ml) are diluted with 0.025% Tween20 by a factor of 50 and 10 μl of this solution is pipetted into a microtiter plate (96-well format). The nutrient broth containing the fungal spores/mycelia fragments is then added to give an end concentration of the tested compound. The test plates are incubated in the dark at 24° C. and 96% relative humidity. The inhibition of fungal growth is determined photometrically after 2 to 7 days, depending on the pathosystem, and percent antifungal activity relative to the untreated check is calculated. Conidia of the fungus from cryogenic storage are directly mixed into nutrient broth (PDB potato dextrose broth). After placing a (DMSO) solution of test compound into a microtiter plate (96-well format), the nutrient broth containing the fungal spores is added. The test plates are incubated at 24° C. and the inhibition of growth is measured photometrically 3-4 days after application.

[2] = system: Phakopsora pachyrhizi; test: Phakopsora pachyrhizi / soybean / leaf disc preventative (Asian soybean rust); type: in vivo; conditions: foliar, soybean leaf disks, inoculated one day after application, assessed 12-14 days after application, read-out: control of Phakopsora pachyrhizi compared to untreated control
Description: Leaf disks or leaf segments of various plant species are cut from plants grown in a greenhouse. The cut leaf disks or segments are placed in multiwell plates (24-well format) onto water agar. The leaf disks are sprayed with a test solution before (preventative) or after (curative) inoculation. Compounds to be tested are prepared as DMSO solutions (max. 10 mg/ml) which are diluted to the appropriate concentration with 0.025% Tween20 just before spraying. The inoculated leaf disks or segments are incubated under defined conditions (temperature, relative humidity, light, etc.) according to the respective test system. A single evaluation of disease level is carried out 3 to 14 days after inoculation, depending on the pathosystem. Percent disease control relative to the untreated check leaf disks or segments is then calculated. Soybean leaf disks are placed on water agar in multiwell plates (24-well format) and sprayed with the formulated test compound diluted in water. One day after application leaf discs are inoculated by spraying a spore suspension on the lower leaf surface. After an incubation period in a climate cabinet of 24-36 hours in darkness at 20° C. and 75% rh leaf disc are kept at 20° C. with 12 h light/12 h darkness and 75% rh. The activity of a compound is assessed as percent disease control compared to untreated when an appropriate level of disease damage appears in untreated check leaf disks (12-14 days after application).

[3] = system: Puccinia recondita f. sp. tritici; test: Puccinia recondita f. sp. tritici / wheat / leaf disc curative (brown rust); type: in vivo; conditions: foliar, wheat leaf segments cv. Kanzler, applied 1 day after inoculation, assessed 6-8 days after application, read-out: control of Puccinia recondita f. sp. tritici compared to untreated control
Description: Leaf disks or leaf segments of various plant species are cut from plants grown in a greenhouse. The cut leaf disks or segments are placed in multiwell plates (24-well format) onto water agar. The leaf disks are sprayed with a test solution before (preventative) or after (curative) inoculation. Compounds to be tested are prepared as DMSO solutions (max. 10 mg/ml) which are diluted to the appropriate concentration with 0.025% Tween20 just before spraying. The inoculated leaf disks or segments are incubated under defined conditions (temperature, relative humidity, light, etc.) according to the respective test system. A single evaluation of disease level is carried out 3 to 14 days after inoculation, depending on the pathosystem. Percent disease control relative to the untreated check leaf disks or segments is then calculated. Wheat leaf segments cv. Kanzler are placed on agar in multiwell plates (24-well format). The leaf segments are inoculated with a spore suspension of the fungus. Plates are stored in darkness at 19° C. and 75% rh. The formulated test compound diluted in water is applied 1 day after inoculation. The leaf segments are incubated at 19° C. and 75% rh under a light regime of 12 h light/12 h darkness in a climate cabinet and the activity of a compound is assessed as percent disease control compared to untreated when an appropriate level of disease damage appears in untreated check leaf segments (6-8 days after application).

[4] = system: Puccinia recondita f. sp. tritici; test: Puccinia recondita f. sp. tritici / wheat / leaf disc preventative (brown rust); type: in vivo; conditions: foliar, wheat leaf segments cv. Kanzler, inoculated 1 day after application, assessed 7-9 days after application, read-out: control of Puccinia recondita f. sp. tritici compared to untreated control
Description: Leaf disks or leaf segments of various plant species are cut from plants grown in a greenhouse. The cut leaf disks or segments are placed in multiwell plates (24-well format) onto water agar. The leaf disks are sprayed with a test solution before (preventative) or after (curative) inoculation. Compounds to be tested are prepared as DMSO solutions (max. 10 mg/ml) which are diluted to the appropriate concentration with 0.025% Tween20 just before spraying. The inoculated leaf disks or segments are incubated under defined conditions (temperature, relative humidity, light, etc.) according to the respective test system. A single evaluation of disease level is carried out 3 to 14 days after inoculation, depending on the pathosystem. Percent disease control relative to the untreated check leaf disks or segments is then calculated. Wheat leaf segments cv. Kanzler are placed on agar in multiwell plates (24-well format) and sprayed with the formulated test compound diluted in water. The leaf disks are inoculated with a spore suspension of the fungus 1 day after application. The inoculated leaf segments are incubated at 19° C. and 75% rh under a light regime of 12 h light/12 h darkness in a climate cabinet and the activity of a compound is assessed as percent disease control compared to untreated when an appropriate level of disease damage appears in untreated check leaf segments (7-9 days after application).

| Structure (SMILES) | inhibition at 20 ppm [1] | pest or weed control at 200 ppm [2] | pest or weed control at 200 ppm [3] | pest or weed control at 200 ppm [4] |
| --- | --- | --- | --- | --- |
| CON(C)C(=O)Cc1ccc(-c2noc(C(F)(F)F)n2)c(F)c1 [Compound 1.18, 2-[3-fluoro-4-[5-(trifluoromethyl)-1,2,4-oxadiazol-3-yl]phenyl]-N-methoxy-N-methyl-acetamide] | ≥ 80% | ≥ 80% | ≥ 80% | ≥ 80% |
| CON(C(=O)Cc1ccc(-c2noc(C(F)(F)F)n2)c(F)c1)C(C)c1ccccc1 (centres unmarked) [Compound 1.24, 2-[3-fluoro-4-[5-(trifluoromethyl)-1,2,4-oxadiazol-3-yl]phenyl]-N-methoxy-N-(1-phenylethyl)acetamide] | ≥ 80% |  |  | ≥ 80% |
| CON(C(=O)Cc1ccc(-c2noc(C(F)(F)F)n2)c(F)c1)C(C)C1CC1 (centres unmarked) [Compound 1.25, N-(1-cyclopropylethyl)-2-[3-fluoro-4-[5-(trifluoromethyl)-1,2,4-oxadiazol-3-yl]phenyl]-N-methoxy-acetamide] | ≥ 80% |  | ≥ 80% |  |
| CON(C(=O)Cc1ccc(-c2noc(C(F)(F)F)n2)cc1)C1COC1 [Compound 2.19, N-methoxy-N-(oxetan-3-yl)-2-[4-[5-(trifluoromethyl)-1,2,4-oxadiazol-3-yl]phenyl]acetamide] | ≥ 80% |  | ≥ 80% | ≥ 80% |
| CON(C(=O)Cc1ccc(-c2noc(C(F)(F)F)n2)cc1)C(C)c1ccccc1 (centres unmarked) [Compound 2.20, N-methoxy-N-(1-phenylethyl)-2-[4-[5-(trifluoromethyl)-1,2,4-oxadiazol-3-yl]phenyl]acetamide] | ≥ 80% |  |  |  |
| CON(C(=O)Cc1ccc(-c2noc(C(F)(F)F)n2)cc1)C(C)C1CC1 (centres unmarked) [Compound 2.21, N-(1-cyclopropylethyl)-N-methoxy-2-[4-[5-(trifluoromethyl)-1,2,4-oxadiazol-3-yl]phenyl]acetamide] | ≥ 80% |  |  |  |
| CON(CC1CC1)C(=O)Cc1ccc(-c2noc(C(F)(F)F)n2)cc1 [Compound 2.22, N-(cyclopropylmethyl)-N-methoxy-2-[4-[5-(trifluoromethyl)-1,2,4-oxadiazol-3-yl]phenyl]acetamide] | ≥ 80% | ≥ 80% | ≥ 80% |  |
| CON(CC1CC1C1CC1)C(=O)Cc1ccc(-c2noc(C(F)(F)F)n2)cc1 (centres unmarked) [Compound 2.25, N-[(2-cyclopropylcyclopropyl)methyl]-N-methoxy-2-[4-[5-(trifluoromethyl)-1,2,4-oxadiazol-3-yl]phenyl]acetamide] | ≥ 80% |  |  |  |
| O=C(Cc1ccc(-c2noc(C(F)(F)F)n2)cc1)N(O)CC1CC1C1CC1 (centres unmarked) [Compound 2.26, N-[(2-cyclopropylcyclopropyl)methyl]-N-hydroxy-2-[4-[5-(trifluoromethyl)-1,2,4-oxadiazol-3-yl]phenyl]acetamide] | ≥ 80% |  | ≥ 80% | ≥ 80% |
